From patent US20060135625A1, “Method of administering split doses of a vascular targeting agent” (priority 2002, published 2006)

Experiments:
[1] = system: murine adenocarcinoma NT (CaNT) tumor; assay: in vitro clonogenic (colony-forming) assay of tumor cells isolated from treated CaNT tumor-bearing animals; format: in vivo, mice
Experimental: (§1) 1) Transplanted tumor model. A murine adenocarcinoma NT (“CaNT”) tumor was transplanted from a syngeneic donor and implanted subcutaneously onto the rear dorsum of 10-16 week old female CBA/Gy f TO mice, by injecting 0.05 ml of a crude cell suspension prepared by mechanical dissociation of the excised. Tumors were selected for treatment with the VTA CA4DP when the geometric mean diameter (“GMD”) reached 5-6.5 mm (150-300 mg), approximately 3-4 weeks after implantation.
(§2) In each of the following Examples 1-4, CA4DP (OXiGENE Inc, Watertown, Mass., USA) was dissolved in 0.9% saline at appropriate concentrations to allow each dose to be injected i.p. in 0.1 ml per 10 g body weight. 0.9% saline was used for control treatments.
To compare the anti-tumor effect of single and divided VTA dose scheduling, the survival of tumor cells isolated from a treated CaNT tumor-bearing animals was assessed by an in vitro clonogenic (colony-forming) assay, as described previously (Chaplin et al., Anticancer Research, 1999, 19: 189-196). Tumors were excised 18-24 h after CA4P injection. Two tumors were combined for each data point, weighed, minced with scissors and then disaggregated for 1 hour at 37° C. in an enzyme cocktail of 1 mg/ml pronase, 0.5 mg/ml DNase and 0.5 mg/ml collagenase. Following digestion, samples were passed through a 25G needle and a 35 μm filter to obtain a single cell suspension. Haemocytometer counts of trypan-blue excluding cells were made and known numbers of viable cells added to a feeder layer of heavily irradiated V79-379A Chinese hamster cells. After 7-10 days incubation, colonies were fixed, stained with methylene blue and counted. The data were calculated as surviving fraction per gram of tumor, which is a product of relative surviving fraction and relative cell yield per gram of tumor. Each experimental group was repeated at least 3 times, so that at least 6 tumors contribute to each data point.

T138 tumor vasculature = assay: functional vascular volume (Hoechst 33342) in T138 tumors; format: in vivo, mice; settings: 24 hours post-treatment
Experimental: (§3) 2) Spontaneous T138 tumor model. The T138 tumor-bearing mice (“T138”) spontaneously developed mammary tumors between 5 and 18 months of age due to genetic predisposition.
as §2
The effect of VTA dose splitting on the tumor vascular response was also investigated in both CaNT and T138 tumor types, by measuring the functional vascular volume at 24 hours following treatment with single or split doses of CA4DP. Functional vascular volume is defined as the volume of tumor tissue perfused by tumor blood vessels, and is measured using the fluorescent DNA-binding dye Hoechst 33342 (Sigma-Aldrich Company Ltd., Dorset, UK) (Smith et al, British Journal of Cancer, 1988, 57: 247-253). […] Functional vessels were identified by the fluorescent outline of perivascular tissue and vascular volumes were determined using a random point scoring system based on that described by Chalkley (Chalkley, J. Natl Cancer Inst., 1943, 4: 47-53). At least 100 fields were scored at each of the three tumor levels and the results for treated tumors were expressed as a percentage of control values.

[2] = system: spontaneous T138 mammary tumors; assay: tumor growth delay in T138 tumor-bearing mice; format: in vivo
Experimental: as §3, §2
(§4) The anti-tumor effect of split dosing therapy was also assessed by an analysis of tumor growth delay in both CaNT and T138 tumor-bearing mice. For experiments involving the CaNT, dose groups comprised 5 to 6 animals, whereas for the T138, 10 to 15 animals were used. Following initial drug treatment, tumor growth was determined by measuring the diameter of each tumor in 3 orthogonal orientations two or three days each week.

[3] = system: microtubule assembly in tumor endothelium; settings: cited from earlier work
CaNT tumor vasculature = assay: functional vascular volume (Hoechst 33342) in CaNT tumors; format: in vivo, mice; settings: for reduction in perfused vascular volume: CaNT, 24 hours post-treatment
Experimental: as §1, §2
The effect of VTA dose splitting on the tumor vascular response was also investigated in both CaNT and T138 tumor types, by measuring the functional vascular volume at 24 hours following treatment with single or split doses of CA4DP. Functional vascular volume is defined as the volume of tumor tissue perfused by tumor blood vessels, and is measured using the fluorescent DNA-binding dye Hoechst 33342 (Sigma-Aldrich Company Ltd., Dorset, UK) (Smith et al, British Journal of Cancer, 1988, 57: 247-253). The dye was dissolved in 0.9% saline at 6.25 mg/ml and injected i.v. at a dose of 10 mg/kg at 24 hours post-treatment. Tumors were excised and frozen 1 minute later. Sections were cut at three levels and observed under UV illumination. Functional vessels were identified by the fluorescent outline of perivascular tissue and vascular volumes were determined using a random point scoring system based on that described by Chalkley (Chalkley, J. Natl Cancer Inst., 1943, 4: 47-53). At least 100 fields were scored at each of the three tumor levels and the results for treated tumors were expressed as a percentage of control values.

[4] = system: murine adenocarcinoma NT (CaNT) tumor; assay: tumor growth delay in CaNT tumor-bearing mice; format: in vivo
Experimental: as §1, §2, §4
The effect of repeated split VTA dosing therapy was also assessed by an analysis of tumor growth delay in both CaNT tumor-bearing mice. […] Repeated administration of total daily dose (50 mg/kg) 5 days a week for 2 weeks, produced a significant delay in tumor growth of approximately 2 days. Tumor growth delay was further improved by repeat administration of split dosing (2 doses of 25 mg/kg per day separated by a 6 hour interval), 5 days a week for 2 weeks (growth delay of approximately 5 days).

[5] = human plasma; cited from earlier work
tubulin = settings: U.S. Pat. No. 4,996,237; cited from earlier work

Row | Structure (SMILES) | cell killing (surviving fraction of tumor cells) ([1]; two equal doses of 100 mg/kg i.p. separated by 1-6 hours, compared with a single 200 mg/kg dose, tumors excised 18-24 h after injection) | cell killing (surviving fraction of tumor cells) ([1]; two equal doses of 100 mg/kg, time interval between doses 2 to 4 hours (p<0.05)) | cell killing (surviving fraction of tumor cells) ([1]; unequal doses separated by 4 hours, compared with equal doses) | reduction of perfused vascular volume (T138 tumor vasculature; T138, single dose 200 mg/kg) | amount of perfused vascular tissue, of the control value (T138 tumor vasculature; T138, two split doses of 100 mg/kg) [%] | tumor growth delay ([2]; single dose of 500 mg/kg) | tumor growth delay ([2]; two equal doses of 250 mg/kg separated by 3 hours) | inhibition of microtubule assembly [3] | reduction in perfused vascular volume (CaNT tumor vasculature; single 50 mg/kg dose) [%] | reduction in perfused vascular volume (CaNT tumor vasculature; two 25 mg/kg doses separated by 3 hours) [%] | reducing the fraction of perfused vascular volume (CaNT tumor vasculature; two equal split doses compared with a single dose, observed in both CaNT and T138 tumor models) | tumor growth delay ([4]; CaNT mice, single 200 mg/kg dose i.p.) | tumor growth delay ([4]; CaNT mice, two equal doses of 100 mg/kg separated by 3 hours) | tumor growth delay ([4]; CaNT, repeated split dosing, 2 doses of 25 mg/kg per day separated by 6 hours, 5 days a week for 2 weeks) | tumor growth delay ([4]; CaNT, repeated total daily dose 50 mg/kg, 5 days a week for 2 weeks) | effect on tumor growth relative to control ([4]; CaNT, single dose 50 mg/kg) | solubility [5] | tubulin binding activity (tubulin)
1 | COc1ccc(/C=C\c2cc(OC)c(OC)c(OC)c2)cc1OP(=O)([O-])[O-].[Na+].[Na+] [CA4DP, Combretastatin A-4 Disodium Phosphate Prodrug] | significantly more cell killing | most pronounced | less effective than equal doses of treatment | completely ineffective | 50 | no effect on tumor growth | approximately 4 days | potent inhibitor of microtubule assembly | 40 | 80 | significantly more effective than a single dose | did not delay growth relative to control | approximately 3 days | approximately 5 days | approximately 2 days | only minimal effects on tumor growth |  | 
2 | COc1ccc(/C=C\c2cc(OC)c(OC)c(OC)c2)cc1O [CA-4, Combretastatin A-4] |  |  |  |  |  |  |  |  |  |  |  |  |  |  |  |  | insolubility | found to have tubulin binding activity
